{
  "source": "patent US20110045593A1",
  "about": "“Transgenically mitigating the establishment and spread of transgenic algae in natural ecosystems by suppressing the activity of carbonic anhydrase” (priority 2009, published 2011)",
  "key": {"[1]": {"system": "Nannochloropsis oculata CS-179", "assay": "Photosynthetic carbon dioxide fixation measured as oxygen evolution with an oxygen electrode, carbonic anhydrase suppressed by inhibitor", "assay_type": "cell-based", "settings": "300 μM, incubated just prior to measurement", "experimental": "Cultures were incubated with ethoxyzolamide just prior to measurement.\nMeasurements of O2 concentrations are performed using a Clark type O2 electrode (Pasco Scientific, Roseville, Calif., USA). 20 ml of cell suspension corresponding to 15 μg chlorophyll/ml are placed in the O2 electrode chamber, at relevant temperature. Cells are exposed to various light intensities and net O2 production is measured. Dark incubations are performed in air-tight vessels to follow light-independent O2 consumption."}, "[2]": {"system": "non-transgenic algal or cyanobacterial cells", "assay": "In vivo pds assay: culture in fluorochloridone solution", "assay_type": "cell-based", "settings": "0.1 μM in standard algae or cyanobacteria culture media", "experimental": "In vivo pds assay. Putative transformed algal or cyanobacterial cells were cultured in a solution of 0.1 μM fluorochloridone in standard algae or cyanobacteria culture media."}},
  "data": [
    {"smiles": "CCOc1ccc2nc(S(N)(=O)=O)sc2c1", "note": "[ethoxyzolamide, 6-ethoxy-2-benzothiazolesulfonamide]", "values": [
      {"measurement": "photosynthetic carbon dioxide fixation (measured as oxygen evolution)", "setting": "[1]; high CO2 concentration (FIG. 1A; more than 2%)", "result": "no effect"},
      {"measurement": "photosynthetic carbon dioxide fixation (measured as oxygen evolution)", "setting": "[1]; high CO2 concentration (FIG. 1A; more than 2%), listed as inhibitor", "result": "no difference in photosynthesis"},
      {"measurement": "photosynthetic carbon dioxide fixation (measured as oxygen evolution)", "setting": "[1]; low CO2 concentration (FIG. 1B)", "result": "decreases photosynthetic carbon dioxide fixation"},
      {"measurement": "photosynthetic carbon dioxide fixation (measured as oxygen evolution)", "setting": "[1]; low CO2 concentration (FIG. 1B), listed as inhibitor", "result": "severely deficient in photosynthesis"}
    ]},
    {"smiles": "O=C1C(Cl)C(CCl)CN1c1cccc(C(F)(F)F)c1", "note": "(centres unmarked) [fluorochloridone]", "values": [
      {"measurement": "killing of non-transgenic cells", "setting": "[2]", "result": "all non-transgenic cells are killed"}
    ]}
  ]
}
